Source: patent US12415939B2, “Nano-adhesive and surface primer compound and use thereof” (The Regents of the University of California, priority 2015, dated 2025)
Several values for one entry are separate records, joined by “and”; a condition that tells them apart may be missing. Identical values can stand only once.

Legend:
[1] = Cyclic voltammetry of catechol oxidation; assay type: physicochemical; conditions: for E1/2: DI water, scan rate 1 mV s−1, Ag/AgCl reference
Description: (§1) Cyclic voltammetry was performed on a Versastat 3 potentiostat from Ametek Co. These analyses were carried out using a three-electrode cell: a Pt wire as the counter electrode, an Ag/AgCl reference electrode, and a Carbon paste electrode (CPE) served as the working electrode. CPE is the best choice for adhesive materials because of its ability to be completely polished before each experiment. Catechol auto-oxidation was avoided by performing all electrochemical experiments with degassed deionized water in a glove bag under argon. Scan rate 1 mV s-1 was used for all experiments. CV of 5 mM synthesized polymers and 5 mM methyl catechol, a simple catechol-containing compound, were compared. Oxidation of Catechol carrying molecules occurred at more positive potentials than methyl catechol, indicating the unique structure of the dispersions provide shielding effects that stabilized catechol groups (FIG. 3).
Cyclic voltammetry was performed on a Versastat 3 potentiostat from Ametek Co. (Berwyn, PA). These analyses were carried out using a three-electrode cell: a Pt wire as the counter electrode, an Ag/AgCl reference electrode, and a Carbon paste electrode (CPE) served as the working electrode. CPE is the best choice for adhesive materials because of its ability to be completely polished before each experiment.
as §1, with “s^−1” for “s-1”, “molecules” for “polymers”, “groups. Z-Cat-Ben with an oxidation peak at 840 mV is more resistant to oxidation than the other species” for “groups”, “42).” for “3).”

[2] = Surface forces apparatus (SFA) cohesion/adhesion between thin films on mica; assay type: physicochemical
[3] = Z-Cat-C10 0.1 mg ml−1 sample in DI water

Structure (SMILES) | stability in water to oxidation (shelf life) ([1]; 5 mM in DI water) | oxidation peak ([1]; 5 mM in degassed DI water, 1 mV s−1) | E1/2 [1] | effect of sodium periodate treatment on cohesion ([2]; 500 pmoles periodate) | cohesion energy Wc between SAMs ([2]; 5 mM in DI water, mica) | effect of aqueous Fe3+ on cohesion ([2]; CFe3+=10 M as printed) | hard-wall thickness ([2]; SAMs from 5 mM, mica) | cohesion energy Wc before and after periodate and iron treatments ([2]; SAMs on mica) | molecular density on mica ([2]; from cohesion energy and π-π interaction) | oxidation peak [1, 3] | reduction peak [1, 3] | adhesion on mica relative to mfp-5 and mfp-amyloid fusion protein [2] | increase in adhesion after asymmetric oxidation ([2]; after tc=60 min contact time) | decrease in cohesion after symmetric periodate oxidation ([2]; contact times ≤tc=10 min, rebounded after tc=60 min) | adhesion energy Wad after periodate oxidation ([2]; cross-linked films on mica, tc=12 h compressive contact) | thin film thickness ([2]; post-oxidation, crosslinked films) | cohesion (or adhesion) energy Wc ([2]; symmetric films adsorbed from 5 mM, DI water, mica) | work of adhesion before periodate ([2]; uncross-linked films on mica)
C[N+](C)(CCCc1ccccc1)CCOP(=O)([O-])OCCCc1ccc(O)c(O)c1 [Z-Cat-Ben] | stable (shelf life) in water to oxidation | 840 mV | 0.418 V | same before and after | 19±3 mJ/m^2 and 18.7±2.8 mJ/m^2 | not affected | ~1 nm | ~20 mJ/m^2 | 1.07×10^18 molecules per m^2 | – | – | – | – | – | – | – | – | –
CN(C)CCOP(=O)(O)OCCCc1ccc(O)c(O)c1 [Z-Cat-C10] | – | – | ~0.25 V | – | – | – | – | – | – | 530 mV | 316 mV | 2-3 fold | 50% | 50% | ~50 mJ m^−2 | 2-4 nm | 10.1±2.3 mJ m^−2 | ~20 mJ m^−2
